Where two headings read alike, the source gives them in different places.
What was measured:
[1] = tested on: neuraminidase (NA) of B/Victoria-lineage viruses; type: biochemical, influenza B/Victoria-lineage virus
[2] = tested on: B/Victoria-lineage viruses; type: cell-based
[3] = tested on: neuraminidase (NA) of B/Victoria-lineage viruses; details: cited from earlier work
[4] = tested on: neuraminidase (NA) of A(H3N2) viruses; details: cited from earlier work

| SMILES | NAI inhibition phenotype (NI/RI/HRI) [1] | EC50 fold-change compared to reference median EC50 values [2] | NAI inhibition phenotype (NI/RI/HRI) [3] | NAI inhibition phenotype (NI/RI/HRI) [4] |
| --- | --- | --- | --- | --- |
| CCOC(=O)C1=C[C@@H](OC(CC)CC)[C@H](NC(C)=O)[C@@H](N)C1 [Oseltamivir, oseltamivir] | RI (key: normal inhibition (NI) is a <5-fold increase in the NAI IC50; RI is a 5- to 50-fold increase; HRI is a >50-fold increase) |  |  |  |
| COC(=O)OCOc1c2n(ccc1=O)N([C@@H]1c3ccccc3SCc3c1ccc(F)c3F)[C@@H]1COCCN1C2=O [Baloxavir, baloxavir marboxil] |  | 3.09–7.93 fold |  |  |
| CC(=O)N[C@H]1[C@H]([C@H](O)[C@H](O)CO)OC(C(=O)O)=C[C@@H]1N=C(N)N [Zanamivir, zanamivir] | RI (key: normal inhibition (NI) is a <5-fold increase in the NAI IC50; RI is a 5- to 50-fold increase; HRI is a >50-fold increase) |  | NI/RI | NI/RI |

Source: publication PMC12391581 (Antiviral Research, 2025)
